The molecule `*/C(C#N)=C(\C#N)N1C(=O)c2ccc(C(=O)c3ccc(-c4ccc5c(c4)C(=O)N(*)C5=O)cc3)cc2C1=O` (repeat unit) yielded a glass transition temperature of 249.00 °C.
As for `*CCOCCOCCN1C(=O)c2ccc(C(=O)Oc3ccc(-c4ccc(OC(=O)c5ccc6c(c5)C(=O)N(*)C6=O)cc4)cc3)cc2C1=O` (repeat unit), the figure is 109.00 °C; as for `*OP(=O)(Oc1c(Cl)c(Cl)c(*)c(Cl)c1Cl)Oc1c(Cl)c(Cl)c(Cl)c(Cl)c1Cl` (repeat unit), 133.00 °C.
The molecule `*OP(=O)(Oc1ccc(Cl)cc1)Oc1c(Cl)c(Cl)c(*)c(Cl)c1Cl` (repeat unit) had a glass transition temperature of 119.00 °C.
As for `*OP(=O)(Oc1ccc(OC)cc1)Oc1c(Br)cc(C(c2cc(Br)c(*)c(Br)c2)(C(F)(F)F)C(F)(F)F)cc1Br` (repeat unit), the figure is 151.00 °C; as for `*OP(=O)(Oc1ccccc1)Oc1c(Cl)c(Cl)c(*)c(Cl)c1Cl` (repeat unit), 79.00 °C; as for `*O[Si](*)(C)c1ccc(C)cc1` (repeat unit), -17.00 °C.
The same measure for `*O[Si](*)(CCC)CCC` (repeat unit): -77.50 °C.
`*O[Si](*)(CCC)c1ccccc1` (repeat unit) registered a glass transition temperature of 40.60 °C.
As for `*O[Si](*)(CCCOCCOCCOCCOCCOC)CCCOCCOCCOCCOCCOC` (repeat unit), the figure is -69.80 °C.
As for `*O[Si](*)(CCCOCCOCCOCCOCCOCCOCCOC)CCCOCCOCCOCCOCCOCCOCCOC` (repeat unit), the figure is -68.90 °C; as for `*O[Si](C)(C)O[Si](C)(C)O[Si](C)(C)O[Si](C)(C)O[Si](C)(C)Oc1c(*)c2ccccc2c2ccccc12` (repeat unit), -38.00 °C.
As for `*O[Si](C)(C)O[Si](C)(C)Oc1ccc(-c2ccc(*)cc2)cc1` (repeat unit), the figure is -4.00 °C; as for `*O[Si](Oc1ccc(-c2ccc(*)cc2)cc1)(c1ccccc1)c1ccccc1` (repeat unit), 132.2 °C; as for `*Oc1c(-c2ccccc2)cc(*)cc1-c1ccc(C(C)(C)C)cc1` (repeat unit), 240.00 °C.
For `*Oc1c(-c2ccccc2)cc(*)cc1-c1ccc(C)cc1` (repeat unit), the glass transition temperature worked out at 218.00 °C.
The same measure for `*Oc1c(-c2ccccc2)cc(*)cc1-c1cccc(-c2ccccc2)c1-c1ccccc1` (repeat unit): 212.00 °C; for `*Oc1c(-c2ccccc2)cc(*)cc1-c1cccc(C)c1` (repeat unit): 219.00 °C; for `*Oc1c(-c2ccccc2)cc(*)cc1-c1cccc2ccccc12` (repeat unit): 234.00 °C.
As for `*Oc1c(Br)cc(*)cc1Br` (repeat unit), the figure is 196.00 °C; as for `*Oc1c(Br)cc(C2(c3cc(Br)c(OC(*)=O)c(Br)c3)CC3CCC2C3)cc1Br` (repeat unit), 283.00 °C; as for `*Oc1c(C(C)C)cc(*)cc1C(C)C` (repeat unit), 152.40 °C.
Molecule `*Oc1c(C)cc(*)cc1C` (repeat unit) yielded a glass transition temperature of 212.00 °C.
As for `*Oc1c(C)cc(*)cc1C(C)CCC` (repeat unit), the glass transition temperature stood at 100.00 °C.
As for `*Oc1c(C)cc(*)cc1C(C)CCCCCC` (repeat unit), the figure is 54.00 °C.
The same measure for `*Oc1c(C)cc(*)cc1C(C)CCCCCCCCCCCC` (repeat unit): -10.00 °C.
The same measure for `*Oc1c(Cl)cc(*)cc1Br` (repeat unit): 188.50 °C; for `*Oc1c(Cl)cc(C(c2cc(Cl)c(OC(*)=O)c(Cl)c2)C(Cl)(Cl)Cl)cc1Cl` (repeat unit): 273.00 °C.
With `*Oc1c(Cl)cc(C2(c3cc(Cl)c(OC(*)=O)c(Cl)c3)CC3CCC2C3)cc1Cl` (repeat unit), the glass transition temperature was determined as 290.00 °C.
As for `*Oc1cc(Br)cc(Br)c1*` (repeat unit), the figure is 170.00 °C; as for `*Oc1cc(C(C)(C)C)c(Oc2ccc(C(=O)Nc3ccc(C(c4ccc(NC(=O)c5ccc(*)cc5)cc4)(C(F)(F)F)C(F)(F)F)cc3)cc2)cc1C(C)(C)C` (repeat unit), 268.00 °C.
As for `*Oc1cc(C)c(*)c(C)c1Br` (repeat unit), the figure is 280.1 °C; as for `*Oc1cc(Cl)cc(Cl)c1*` (repeat unit), 165.00 °C; as for `*Oc1ccc(-c2ccc(-c3cc(-c4ccccc4)c(-c4ccc(-c5ccc(OC(=O)c6ccc(C(*)=O)cc6-c6ccccc6)cc5)cc4)c(-c4ccccc4)c3-c3ccccc3)cc2)cc1` (repeat unit), 260.00 °C.
As for `*Oc1ccc(-c2ccc(OC(*)(Oc3ccccc3)Oc3ccccc3)cc2)cc1` (repeat unit), the figure is 112.00 °C.
With `*Oc1ccc(-c2ccc(OC(=O)c3cc(OCCCc4ccccc4)c(C(*)=O)cc3OCCCc3ccccc3)cc2)cc1` (repeat unit), the glass transition temperature was found to be 72.00 °C.
As for `*Oc1ccc(-c2ccc(OC(=O)c3ccc(-c4ccc(C(*)=O)cc4)cc3-c3ccccc3)cc2)cc1` (repeat unit), the figure is 168.00 °C.
The same measure for `*Oc1ccc(-c2ccc(OC(=O)c3ccc(C(*)=O)cc3)cc2)cc1-c1ccccc1` (repeat unit): 132.00 °C; for `*Oc1ccc(-c2ccc(Oc3ccc4ccccc4c3-c3c(*)ccc4ccccc34)c3ccccc23)c2ccccc12` (repeat unit): 301.00 °C; for `*Oc1ccc(-c2ccc(Oc3cccc(*)n3)cc2)cc1` (repeat unit): 119.00 °C.
As for `*Oc1ccc(/C(=C/c2ccc(-c3ccc(/C=C(\c4ccccc4)c4ccc(OC(=O)c5ccc(C(*)=O)cc5)cc4)cc3)cc2)c2ccccc2)cc1` (repeat unit), the glass transition temperature was 236.00 °C.
The same measure for `*Oc1ccc(/C(=C/c2ccc(-c3ccc(/C=C(\c4ccccc4)c4ccc(OC(=O)c5cccc(C(*)=O)c5)cc4)cc3)cc2)c2ccccc2)cc1` (repeat unit): 224.00 °C; for `*Oc1ccc(/N=N/c2ccc(Cc3ccc(/N=N/c4ccc(OC(=O)c5ccc(/N=N/c6ccc(C(*)=O)cc6)cc5)cc4)cc3[N+](=O)[O-])c([N+](=O)[O-])c2)cc1` (repeat unit): 160.00 °C; for `*Oc1ccc(C(=C(Cl)Cl)c2ccc(OC(*)=O)cc2)cc1` (repeat unit): 167.00 °C.
The same measure for `*Oc1ccc(C(=O)c2ccccc2)c(-c2cc(Oc3ccc(-c4ccc(*)cc4)cc3)ccc2C(=O)c2ccccc2)c1` (repeat unit): 174.00 °C.
As for `*Oc1ccc(Oc2ccc(C(=O)Nc3ccc(Oc4ccc(-c5ccc(Oc6ccc(NC(=O)c7ccc(*)cc7)cc6)cc5)cc4)cc3)cc2)cc1C` (repeat unit), the figure is 220.00 °C; as for `*Oc1ccc(Oc2ccc(C(=O)c3ccc(Oc4ccc(Oc5ccc(C(=O)c6ccc(*)c(C(C)C)c6)cc5)cc4)cc3)cc2C(C)C)cc1` (repeat unit), 145.00 °C; as for `*Oc1ccc(S(=O)(=O)c2ccc(Oc3c(C)cc(C(c4cc(C)c(*)c(C)c4)(C(F)(F)F)C(F)(F)F)cc3C)cc2C(OC)(C(F)(F)F)C(F)(F)F)c(C(OC)(C(F)(F)F)C(F)(F)F)c1` (repeat unit), 163.00 °C.
As to `*Oc1cccc(Oc2ccc(-c3ccc(*)cc3)cc2)c1C#N` (repeat unit), the glass transition temperature came to 210.00 °C.
As for `*c1cc(N2C(=O)c3ccc(Oc4cc5ccccc5cc4Oc4ccc5c(c4)C(=O)N(*)C5=O)cc3C2=O)cc(C(F)(F)F)c1` (repeat unit), the figure is 250.00 °C.
As for `*c1ccc(C(c2ccc(N3C(=O)c4ccc(Oc5cc6ccccc6cc5Oc5ccc6c(c5)C(=O)N(*)C6=O)cc4C3=O)cc2)(C(F)(F)F)C(F)(F)F)cc1` (repeat unit), the figure is 256.00 °C.
As for `*c1ccc(OC(=O)c2cccc(C(=O)Oc3ccc(-c4nc5ccccc5nc4*)cc3)c2)cc1` (repeat unit), the figure is 245.00 °C.
In turn, `*c1ccc(Oc2cc(C(C)(C)C)ccc2Oc2ccc(-n3c(=O)c4cc5c(=O)n(*)c(=O)c5cc4c3=O)cc2)cc1` (repeat unit) displayed a glass transition temperature of 321.00 °C.
The same measure for `*c1ccc(Oc2ccc(C(=O)c3ccc(Oc4ccc(N5C(=O)c6ccc(S(=O)(=O)c7ccc8c(c7)C(=O)N(*)C8=O)cc6C5=O)cc4)cc3)cc2)cc1` (repeat unit): 275.50 °C.
The same measure for `*c1ccc(Oc2ccc(Oc3ccc(N4C(=O)c5ccc(Oc6cc7ccccc7cc6Oc6ccc7c(c6)C(=O)N(*)C7=O)cc5C4=O)cc3)cc2)cc1` (repeat unit): 224.50 °C.
The same measure for `*c1ccc(Oc2ccc(Oc3ccc(Oc4ccc(-c5cnc6cc(-c7ccc8nc(*)cnc8c7)ccc6n5)cc4)cc3)cc2)cc1` (repeat unit): 133.00 °C.
For `*c1ccc(Oc2ccc(Oc3ccc(Oc4ccc(N5C(=O)c6ccc(Oc7ccc(-c8ccc(Oc9ccc%10c(c9)C(=O)N(*)C%10=O)cc8)cc7)cc6C5=O)cc4)cc3)cc2)cc1` (repeat unit), the glass transition temperature is 208.00 °C.
The same measure for `*c1ccc(Oc2cccc(N3C(=O)c4ccc(Oc5cc6ccccc6cc5Oc5ccc6c(c5)C(=O)N(*)C6=O)cc4C3=O)c2)cc1` (repeat unit): 226.00 °C; for `*c1ccc(Oc2cccc(Oc3ccc(N4C(=O)c5ccc(Oc6ccc(-c7ccc(Oc8ccc9c(c8)C(=O)N(*)C9=O)cc7)cc6)cc5C4=O)cc3)c2)cc1` (repeat unit): 205.00 °C; for `*c1ccc2c(c1)C(=O)N(c1ccc(Oc3ccc(C(=O)c4ccc(Oc5ccc(N6C(=O)c7ccc(C(*)(C(F)(F)F)C(F)(F)F)cc7C6=O)cc5)cc4)cc3)cc1)C2=O` (repeat unit): 266.00 °C.
As for `*c1cccc(N2C(=O)c3ccc(Oc4ccc(-c5ccc(Oc6ccc7c(c6)C(=O)N(*)C7=O)cc5)cc4)cc3C2=O)c1` (repeat unit), the figure is 247.00 °C.

Source of the values: the PolyMetriX glass transition set.
